These are literature values, as cited in patent publication US6995149B1, “Contraceptive process and kit for female mammals, comprising a combination of gestagen and oestrogen” (Schering AG, priority 1995, dated 2006).

The structures appear in SMILES notation.

The test system of one data set is women. The settings on record: daily dose of 70 to 80 μg, pure gestagen preparation; in almost all women.
The conditions of data set [1]: very small doses; ovulation is not always inhibited.

In the case of `C#C[C@]1(O)CC[C@H]2[C@@H]3CCC4=CC(=O)CC[C@@H]4[C@H]3C(=C)C[C@@]21CC` [3-ketodesogestrel], the inhibition of ovulation entry with women is recorded as “In almost all women, these dosages cause inhibition of ovulation”.
As to `CC(=O)O[C@]1(C(C)=O)CC[C@H]2[C@@H]3C=C(Cl)C4=CC(=O)CC[C@]4(C)[C@H]3CC[C@@]21C` [chloromadinone acetate], the contraceptive protection entry in data set [1] was “afforded contraceptive protection”.
Turning to `C#C[C@]1(O)CC[C@H]2[C@@H]3CCC4=CCCC[C@@H]4[C@H]3C(=C)C[C@@]21CC` [desogestrel], the inhibition of ovulation result with women is “In almost all women, these dosages cause inhibition of ovulation”.
